Values joined by “and” are separate entries in the source; they are usually repeats but may differ in a detail not shown here. Identical values can stand only once.
Target: T1, IL17A (Homo sapiens, UniProt Q16552)
T1 sequence (Q16552 24-155): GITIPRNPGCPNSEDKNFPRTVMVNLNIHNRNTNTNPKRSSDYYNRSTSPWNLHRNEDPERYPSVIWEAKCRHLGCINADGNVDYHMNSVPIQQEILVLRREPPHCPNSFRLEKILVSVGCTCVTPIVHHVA
Assay: Surface Plasmon Resonance (SPR) analysis of compound interactions with IL17A
Details: SPR binding to IL17A
Method: SPR analysis was carried out with a GE Healthcare (Piscataway, N.J.) Biacore X100 system. Typically, the chip (NTA Biacore Biosensor chip; GE Healthcare BR-1000-34) was first conditioned by injection of 0.35 M EDTA, which also served to remove any immobilized proteins from previous runs. Before immobilization of the recombinant 6-His-tagged IL17, the chip was washed with 0.5 mM nickel chloride in NTA buffer (10 mM HEPES buffer, 0.15 M sodium chloride, 10 μM ethylene diamine tetraacetic acid, 0.005% v/v surfactant P20 (GE Healthcare BR-1000-54)) to form a nickel chelate on the chip. IL17 protein was immobilized onto a NTA chip through its 6-His tag. IL17A was typically injected at 0.25 μM for 60-120 seconds, followed by a stabilization step washing with NTA+0.5% DMSO for 120 seconds or longer.
Five 2-fold or 3-fold serial dilutions of test compound were injected serially onto the chip. All steps were conducted using NTA buffer containing 0.5% v/v dimethylsulfoxide (DMSO). Compounds were diluted from stock solutions of 10 mM concentration in 100% DMSO with NTA buffer to obtain 50 μM solutions in NTA+0.5% DMSO. Subsequent 2× or 3× dilutions were made in NTA+0.5% DMSO. Compound was generally injected for 180 seconds followed by washing the chip in buffer alone for 120 seconds. The rate of refractive index change (RU units/time) and the maximum extend of RU change was measured during the “on” phase of analyte injection, followed by measuring the rate during the “off” phase.
Kinetic parameter fits were conducted using the Biacore SPR Evaluation Program (GE Healthcare) for 1:1 molecular binding fits, after subtracting the baseline average of 2 or more runs in which no analyte was injected. This program then reports the best fit average for the “on” rate (Ka), the “off” rate (Kd) and the dissociation constant (KD) (Chaiken, I et al., Anal Biochem 201, 197-210 (1992)). A separate program in the Biacore SPR Evaluation Program then calculates the best fit for Kd based upon the extent of binding alone (RU units bound) at each concentration of analyte and reports the best fit Kd by best fit to a Lineweaver-Burke plot. Typically, the Kd value calculated through both means agreed within a factor of three.
The presence and activity of IL17 on the NTA chip was routinely confirmed three ways: • 1) An increase in response units (RU) upon immobilization confirms that the IL17 was immobilized on the chip; • 2) Anti-IL17 was also injected on the chip to confirm the presence of IL17; and • 3) IL17R was injected onto the chip to confirm that the immobilized IL17 retained its binding activity for its receptor. Negative controls to access specificity for compound binding were conducted by immobilizing unrelated, but his-tagged, proteins (such as cyclophilin D) and conducting the same analysis as done with IL17A.

Row | Structure (SMILES) | Kd
1 | COC(=O)[C@@H]1CCCCNC(=O)CCCNC(=O)[C@@H](Cc2ccc(NC(=O)[C@H](Cc3cccc(F)c3)NC(=O)Cc3ccccc3)cc2)NC(=O)CC2(CCCC2)CC(=O)N1 [Compound 116] | 100 to 1000 nM
2 | COC(=O)[C@H]1CCCCNC(=O)[C@H](CO)NC(=O)[C@@H](Cc2ccc(NC(=O)[C@H](Cc3ccccc3Cl)NC(=O)c3ccccc3)cc2)NC(=O)CC2(CCCC2)CC(=O)N1 [Compound 148] | 100 to 1000 nM
3 | O=C1CCCNC(=O)[C@H](Cc2ccc(NC(=O)[C@H](Cc3ccccc3F)NC(=O)Cc3ccccc3)cc2)NC(=O)CC2(CCCC2)CC(=O)N[C@@H](C(=O)O)CCCCN1 [Compound 103] | > 10000 nM
4 | COC(=O)[C@H]1CCCCNC(=O)C(C)(C)NC(=O)[C@@H](Cc2ccc(NC(=O)[C@H](Cc3ccccc3Cl)NC(=O)Cc3ccccc3)cc2)NC(=O)CC2(CCCC2)CC(=O)N1 [Compound 145] | < 100 nM
5 | COC(=O)[C@@H]1CCCCNC(=O)CCCNC(=O)[C@@H](Cc2ccc(NC(=O)[C@H](Cc3ccccc3)NC(=O)Cc3ccc(C(F)(F)F)cc3)cc2)NC(=O)CC2(CCCC2)CC(=O)N1 [Compound 140] | 100 to 1000 nM
6 | COC(=O)[C@@H]1CCCCNC(=O)CCCNC(=O)[C@@H](Cc2ccc(NC(=O)[C@H](Cc3ccc(-c4ccccc4)cc3)NC(=O)c3ccccc3)cc2)NC(=O)CC2(CCCC2)CC(=O)N1 [Compound 125] | 100 to 1000 nM
7 | COC(=O)[C@@H]1CCCCNC(=O)CCCNC(=O)[C@H](Cc2ccc(NC(=O)[C@H](Cc3ccccc3F)NC(=O)Cc3ccccc3)cc2)NC(=O)CC2(CCCC2)CC(=O)N1 [Compound 105] | 1000 to 10000 nM and 100 to 1000 nM
8 | COC(=O)[C@H]1CCCCNC(=O)CCCNC(=O)[C@@H](Cc2ccc(NC(=O)[C@H](Cc3ccccc3F)NC(=O)c3ccccc3)cc2)NC(=O)CC2(CCCC2)CC(=O)N1 [Compound 136] | < 100 nM
9 | COC(=O)[C@@H]1CCCCNC(=O)CCCNC(=O)[C@@H](Cc2ccc(NC(=O)[C@H](Cc3cccc(F)c3)NC(=O)c3ccccc3)cc2)NC(=O)CC2(CCCC2)CC(=O)N1 [Compound 117] | 100 to 1000 nM
10 | COC(=O)[C@H]1CCCCNC(=O)CNC(=O)[C@@H](Cc2ccc(NC(=O)[C@H](Cc3ccccc3F)NC(=O)c3ccccc3)cc2)NC(=O)CC2(CCCC2)CC(=O)N1 [Compound 150] | < 100 nM
11 | COC(=O)[C@@H]1CCCCNC(=O)CCCCCNC(=O)[C@@H](Cc2ccc(NC(=O)[C@H](Cc3ccccc3F)NC(=O)Cc3ccccc3)cc2)NC(=O)CC2(CCCC2)CC(=O)N1 [Compound 111] | 100 to 1000 nM
12 | COC(=O)[C@@H]1CCCCNC(=O)CCCNC(=O)[C@H](Cc2ccc(NC(=O)[C@H](Cc3ccccc3F)NC(=O)c3ccccc3)cc2)NC(=O)CC2(CCCC2)CC(=O)N1 [Compound 137] | 100 to 1000 nM
13 | COC(=O)[C@H]1CCCCNC(=O)CCCNC(=O)[C@H](Cc2ccc(NC(=O)[C@H](Cc3ccccc3F)NC(=O)Cc3ccccc3)cc2)NC(=O)CC2(CCCC2)CC(=O)N1 [Compound 101] | 1000 to 10000 nM
14 | COC(=O)[C@H]1CCCCNC(=O)CCCNC(=O)[C@@H](Cc2ccc(NC(=O)[C@H](Cc3ccccc3)NC(=O)c3ccccc3)cc2)NC(=O)CC2(CCCC2)CC(=O)N1 [Compound 139] | 100 to 1000 nM
15 | COC(=O)[C@@H]1CCCCNC(=O)CCCNC(=O)[C@@H](Cc2ccc(NC(=O)[C@H](Cc3ccccc3)NC(=O)Cc3ccccc3)cc2)NC(=O)CC2(CCCC2)CC(=O)N1 [Compound 114] | 100 to 1000 nM
16 | COC(=O)[C@@H]1Cc2ccc(cc2)NC(=O)CCCNC(=O)[C@@H](Cc2ccc(NC(=O)[C@H](Cc3ccccc3F)NC(=O)Cc3ccccc3)cc2)NC(=O)CC2(CCCC2)CC(=O)N1 [Compound 135] | 100 to 1000 nM
17 | COC(=O)[C@@H]1CCCCNC(=O)CCCNC(=O)[C@@H](Cc2ccc(NC(=O)[C@H](Cc3ccccc3F)NC(=O)c3ccccc3)cc2)NC(=O)CC2(CCCC2)CC(=O)N1 [Compound 128] | 100 to 1000 nM
18 | COC(=O)[C@@H]1CCCCNC(=O)CCCNC(=O)[C@@H](Cc2ccc(NC(=O)[C@H](Cc3ccccc3C)NC(=O)Cc3ccccc3)cc2)NC(=O)CC2(CCCC2)CC(=O)N1 [Compound 126] | 100 to 1000 nM

Next, values leading:

Row | Kd | Structure (SMILES)
19 | < 100 nM | O=C1CCCNC(=O)[C@@H](Cc2ccc(NC(=O)[C@H](Cc3ccccc3Cl)NC(=O)Cc3ccccc3)cc2)NC(=O)CC2(CCCC2)CC(=O)NCCCCCN1 [Compound 161]
20 | 100 to 1000 nM | O=C1CCCNC(=O)[C@@H](Cc2ccc(NC(=O)[C@H](Cc3ccc(-c4ccccc4)cc3)NC(=O)c3ccccc3)cc2)NC(=O)CC2(CCCC2)CC(=O)N[C@H](C(=O)O)CCCCN1 [Compound 178]
21 | < 100 nM | O=C1CCCNC(=O)[C@@H](Cc2ccc(NC(=O)[C@H](Cc3ccccc3Cl)NC(=O)Cc3ccccc3)cc2)NC(=O)CC2(CCCC2)CC(=O)NCCCCN1 [Compound 166]
22 | 100 to 1000 nM | O=C1CNC(=O)[C@@H](Cc2ccc(NC(=O)[C@H](Cc3c(F)cccc3F)NC(=O)Cc3ccc(O)cc3)cc2)NC(=O)CC2(CCCC2)CC(=O)NCCCCCN1 [Compound 190]
23 | 100 to 1000 nM | O=C1CCCNC(=O)[C@H](Cc2ccc(NC(=O)[C@H](Cc3ccccc3F)NC(=O)Cc3ccccc3)cc2)NC(=O)CC2(CCCC2)CC(=O)N[C@H](C(=O)O)CCCCN1 [Compound 174]
24 | < 100 nM | O=C1CNC(=O)[C@@H](Cc2ccc(NC(=O)[C@H](Cc3ccc(O)cc3)NC(=O)Cc3ccc(O)cc3)cc2)NC(=O)CC2(CCCC2)CC(=O)NCCCCCN1 [Compound 189]
25 | 100 to 1000 nM | O=C1CCCNC(=O)[C@@H](Cc2ccc(NC(=O)[C@H](Cc3ccccc3F)NC(=O)Cc3ccccc3)cc2)NC(=O)CC2(CCCC2)CC(=O)N[C@H](C(=O)O)CCCCN1 [Compound 175]
26 | < 100 nM | O=C1CNC(=O)[C@@H](Cc2ccc(NC(=O)[C@H](Cc3ccccc3Cl)NC(=O)c3ccncc3)cc2)NC(=O)CC2(CCCC2)CC(=O)NCCCCCN1 [Compound 208]
27 | < 100 nM | CC(=O)N[C@@H](Cc1ccccc1Cl)C(=O)Nc1ccc(C[C@H]2NC(=O)CC3(CCCC3)CC(=O)NCCCCNC(=O)CNC2=O)cc1 [Compound 163]
28 | < 100 nM | CC(=O)N[C@@H](Cc1ccccc1Cl)C(=O)Nc1ccc(C[C@H]2NC(=O)CC3(CCCC3)CC(=O)N(CCO)CCCCCNC(=O)CCNC2=O)cc1 [Compound 171]
29 | 100 to 1000 nM | CC(=O)N[C@@H](Cc1ccccc1Cl)C(=O)Nc1ccc(C[C@H]2NC(=O)CC3(CCCC3)CC(=O)NCCCNC(=O)CNC2=O)cc1 [Compound 152]
30 | 100 to 1000 nM | O=C1CCCNC(=O)[C@@H](Cc2ccc(NC(=O)[C@H](Cc3ccccc3F)NC(=O)Cc3ccccc3)cc2)NC(=O)CC2(CCCC2)CC(=O)N[C@@H](C(=O)O)CCCCN1 [Compound 176]
31 | < 100 nM | O=C1CNC(=O)[C@@H](Cc2ccc(NC(=O)[C@H](Cc3ccccc3Cl)NC(=O)c3ccc(O)cc3)cc2)NC(=O)CC2(CCCC2)CC(=O)NCCCCCN1 [Compound 215]
32 | < 100 nM | O=C1CNC(=O)[C@@H](Cc2ccc(NC(=O)[C@H](Cc3ccccc3Cl)NC(=O)Cc3ccccc3)cc2)NC(=O)CC2(CCCC2)CC(=O)NCCCCN1 [Compound 162]
33 | < 100 nM | O=C1CNC(=O)[C@@H](Cc2ccc(NC(=O)[C@H](Cc3ccccc3Cl)NC(=O)Cc3ccccc3)cc2)NC(=O)CC2(CCCC2)CC(=O)NCCCN1 [Compound 156]
34 | < 100 nM | O=C1CCNC(=O)[C@@H](Cc2ccc(NC(=O)[C@H](Cc3ccccc3Cl)NC(=O)Cc3ccccc3)cc2)NC(=O)CC2(CCCC2)CC(=O)NCCCN1 [Compound 157]
35 | < 100 nM | O=C1CNC(=O)[C@@H](Cc2ccc(NC(=O)[C@H](Cc3ccc(Cl)cc3Cl)NC(=O)Cc3ccccc3)cc2)NC(=O)CC2(CCCC2)CC(=O)NCCOCCN1 [Compound 210]
